Data set [1] relates to dissociated cardiomyocytes from Sham and TAC mice. As to the kind of experiment: IK1 density in dissociated cardiomyocytes, murine TAC model of HFrEF. The conditions noted are these: for IK1: administration of DECA-11 (AAV9). In kind it is in vivo. The source says: (§1) A murine model of CI with reduced ejection fraction (HFrEF) was used to analyse the effect of SEQ ID NO: 3 on the decrease in INa and IK1 caused by electrical remodelling associated with Cl. The mice are subjected to transverse aortic constriction (TAC) with ligation, and pressure overload leads to the occurrence of cardiac hypertrophy and Cl. The mice were produced at the Medical Research Centre of the University of Navarra (CIMA), under the direction of Dr Aránzazu González Miqueo.
(§2) Eight-week-old mice were administered 3.5×10^10 particles of adeno-associated virus type 9 that encoded either the fluorescent reporter td-Tomato (Aav-dt-T) alone, or the reporter and the peptide DECA-11. At 12 weeks of age, an echocardiographic check-up (baseline) was performed and at week 13 they underwent surgery in which the aorta was ligated (TAC animals) or not (Sham animals).
That same week they were sent to the UCM animal facility. Next, the mice were heparinised and anaesthetised and then sacrificed by cervical dislocation, at a rate of one per day, and a thoracotomy was performed to remove the heart which was mounted through the aorta into a cannula connected to a Langendorff apparatus for enzymatic dissociation of the cardiac myocytes. After removal of the heart, said heart was cannulated through the aorta and placed in a Langendorff apparatus. First, the hearts were perfused with modified Tyrode's solution (composition in mM: 136 NaCI, 4 KCI, 2 MgCl2, 1.8 CaCl2, 10 HEPES, 10 glucose, 3 pyruvic acid and 0.1 thiamine, pH=7.4 with NaOH) bubbled with oxygen and at 37°C for 3-5 minutes. Subsequently, they were perfused for another 8 minutes with the same solution without CaCl2. After 1-2 minutes, the heart stops beating. Next, they were perfused with Tyrode's solution without CaCl2 supplemented with 120 u/ml collagenase type II from Worthington and 0.5 u/ml protease XIV from Sigma. […]
(§3) As indicated above, IK1 was also recorded in mouse cardiomyocytes from all four groups. […] In fact, the density of IK1 in TAC animals pretreated with DECA-11 is not different from that recorded in Sham animals.

The subject of data set [2] is human iPSC-derived cardiomyocytes. The conditions noted are these: hiPSC-CM; sustained current sensitive to TTX (10 µM), as percentage of the current peak; 500 ms pulses from -120 to -45 mV.
Data set [3] has as its system murine model of CI with reduced ejection fraction (HFrEF). Nature of the data set: Murine model of CI (transverse aortic constriction): capacitance, INa and IK1 of dissociated cardiomyocytes. In kind it is in vivo, mice.
Excerpt: as §1, §2
That same week they were sent to the UCM animal facility. Next, the mice were heparinised and anaesthetised and then sacrificed by cervical dislocation, at a rate of one per day, and a thoracotomy was performed to remove the heart which was mounted through the aorta into a cannula connected to a Langendorff apparatus for enzymatic dissociation of the cardiac myocytes. After removal of the heart, said heart was cannulated through the aorta and placed in a Langendorff apparatus. First, the hearts were perfused with modified Tyrode's solution (composition in mM: 136 NaCI, 4 KCI, 2 MgCl2, 1.8 CaCl2, 10 HEPES, 10 glucose, 3 pyruvic acid and 0.1 thiamine, pH=7.4 with NaOH) bubbled with oxygen and at 37°C for 3-5 minutes. Subsequently, they were perfused for another 8 minutes with the same solution without CaCl2. After 1-2 minutes, the heart stops beating. Next, they were perfused with Tyrode's solution without CaCl2 supplemented with 120 u/ml collagenase type II from Worthington and 0.5 u/ml protease XIV from Sigma. Lastly, the hearts were perfused with a solution called KB of the following composition (mM): 25 KCI, 10 KH2PO4, 2 MgCI2, 0.5 EGTA-K, 5 HEPES-K, 100 glutamic acid, 10 aspartic acid, 20 taurine, 5 creatine and 10 glucose (pH=7.2 with KOH). After this process has been completed, the heart was detached from the cannula and shaken in aliquots of KB solution where the myocytes were disintegrated and stored in the refrigerator for at least one hour before electrophysiological recordings were started.
Capacitance is an indirect and reliable measure of cell size. As can be observed, there was no significant difference in the capacitance of myocytes from Sham animals, had they been infected with Ad-td-Tomato (control) or with Aav-DECA-11.
To record INa in mouse cardiomyocytes, the composition of the external solution was (mM): 4 NaCl, 1 MgCl2, 1 CaCl2, 0.1 CdCl2, 133.5 CsCl, 20 HEPES and 11 glucose (pH=7.35 with CsOH) and the solution that filled the recording micropipette was (mM): 10 NaF, 110 CsF, 20 CsCl, 10 HEPES and 10 EGTA (pH 7.35 with CsOH). All other protocols and conditions were the same as those used for recording INa in human iPSC-derived cardiomyocytes (according to Example 2.3).
as §3

The mark [4] stands for this setting: cardiomyocytes from Sham animals.
[5] abbreviates: cardiomyocytes from TAC animals.

Where no end group is shown, it is not given here.

On to “RFTRESLAAIE (listed as Homo sapiens) [SEQ ID NO: 3]”, for which the IK1 result in data set [1] (Sham animals) and in data set [1] (TAC animals) was “significantly increases” throughout. Further, the “density of IK1 compared with that recorded in Sham animals” value in data set [1] (TAC animals pretreated with DECA-11 vs. Sham animals) is on record as “not different”. In addition, in data set [2], the INaL result is listed as “does not increase”.
As for RFTRESLAAIE [DECA-11, RFTRESLAAIE], the capacitance of myocytes result in data set [3] (TAC animals, vs untreated TAC animals) is reported as “significantly lower”. Besides, in data set [3] (setting [4]), the IK1 entry was “significantly increases IK1” and the “density of INa” value is “increased the density of INa”. In data set [3] (setting [5]), the IK1 entry is on record as “significantly increases IK1”; the “density of INa” value is “significantly and markedly increased the density of INa”.

These data come from patent publication EP4786486A1, “PEPTIDES FOR TREATING CARDIAC DISEASES” (Universidad Complutense De Madrid, priority 2023, dated 2025).
